Laboratory results published in patent US20220187282A1, “CARDIOMYOCYTE PROLIFERATION” (The Council of the Queensland Institute of Medical Research, priority 2019, published 2022).
“Also recorded” adds a separate entry of the source. Where two headings read alike, the source gives them in different places.

Experiments:
Type in all cases: biochemical
kinases [1] = biological target: kinases (Homo sapiens, UniProt O96017); settings: CHEK2 (CHK2) FRET-Z-Lyte SP; Test Conc(μM):ATP Conc(μM) 1:75
kinases [2] = biological target: kinases (Homo sapiens, UniProt P00519); settings: ABL1 Hu Phos FRET-Z-Lyte SP; Test Conc(μM):ATP Conc(μM) 1:10
kinases [3] = biological target: kinases (Homo sapiens, UniProt P00533); settings: EGFR (ErbB1) *Mn* Z-Lyte SP; Test Conc(μM):ATP Conc(μM) 1:10
kinases [4] = biological target: kinases (Homo sapiens, UniProt P10721); settings: KIT *Mn* FRET-Z-Lyte SP
kinases [5] = biological target: kinases (Homo sapiens, UniProt P21802); settings: FGFR2 *Mn* FRET-Z-Lyte SP; Test Conc(μM):ATP Conc(μM) 1:5
kinases [6] = biological target: kinases (Homo sapiens, UniProt P29322); settings: EPHA8 FRET-Z-Lyte SP; Test Conc(μM):ATP Conc(μM) 1:100
kinases [7] = biological target: kinases (Homo sapiens, UniProt P35968); settings: KDR (VEGFR2) FRET-Z-Lyte SP; Test Conc(μM):ATP Conc(μM) 1:75
kinases [8] = biological target: kinases (Homo sapiens, UniProt P45984)
kinases [9] = biological target: kinases (Homo sapiens, UniProt P51812); settings: RPS6KA3 (RSK2) FRET-Z-Lyte SP; Test Conc(μM):ATP Conc(μM) 1:10
kinases [10] = biological target: kinases (Homo sapiens, UniProt P54764); settings: EPHA4 FRET-Z-Lyte SP; Test Conc(μM):ATP Conc(μM) 1:100
kinases [11] = biological target: kinases (Homo sapiens, UniProt P68400); settings: CSNK2A1 (CK2alpha1) Z-Lyte SP; Test Conc(μM):ATP Conc(μM) 1:5
kinases [12] = biological target: kinases (Homo sapiens, UniProt Q04759); settings: PRKCQ (PKC theta) Z-Lyte SP; Test Conc(μM):ATP Conc(μM) 1:100
kinases [13] = biological target: kinases (Homo sapiens, UniProt Q15569); settings: TESK1 FRET-Lantha SP; Test Conc(μM) 1
kinases [14] = biological target: kinases (Homo sapiens, UniProt Q5TCX8); settings: MLK4 FRET-Lantha SP; Test Conc(μM) 1
kinases [15] = biological target: kinases (Homo sapiens, UniProt Q86Y07); settings: VRK2 FRET-Lantha SP; Test Conc(μM) 1
kinases [16] = biological target: kinases (Homo sapiens, UniProt Q96PF2); settings: STK22B (TSSK2) FRET-Z-Lyte SP; Test Conc(μM):ATP Conc(μM) 1:5
kinases [17] = biological target: kinases (Homo sapiens, UniProt Q99683); settings: MAP3K5 (ASK1) FRET-Lantha SP; Test Conc(μM) 1
kinases [18] = biological target: kinases (Homo sapiens, UniProt Q9BYP7); settings: WNK3 FRET-Lantha SP; Test Conc(μM) 1
kinases [19] = biological target: kinases (Homo sapiens, UniProt Q9H1R3); settings: MYLK2 FRET-Z-lyte SP
kinases [20] = biological target: kinases (Homo sapiens, UniProt Q9H4A3); settings: Test Conc(μM) 1
kinases [21] = biological target: kinases (Homo sapiens, UniProt Q9HAZ1); settings: CLK4 FRET-Lantha SP; Test Conc(μM) 1
kinases [22] = biological target: kinases (Homo sapiens, UniProt Q9NQU5); settings: PAK6 FRET-Z-Lyte SP; Test Conc(μM):ATP Conc(μM) 1:10
kinases [23] = biological target: kinases (Homo sapiens, UniProt Q9NRA0); settings: SPHK2 FRET-Adapta SP; Test Conc(μM):ATP Conc(μM) 1:10
kinases [24] = biological target: kinases (Homo sapiens, UniProt Q9UPZ9); settings: ICK FRET-Lantha SP; Test Conc(μM) 1
kinases [25] = biological target: kinases (Homo sapiens, UniProt Q9Y6E0); settings: STK24 (MST3) FRET-Z-Lyte SP; ATP Conc(μM):Test Conc(μM) 1:50
kinases [26] = biological target: kinases
[27] = Test Conc(μM):ATP Conc(μM) 1:300
[28] = MAPK9 (JNK2) Cascade Z-Lyte SP, Test Conc(μM):ATP Conc(μM) 1:100
[29] = MAPK9 (JNK2) FRET-Lantha SP, Test Conc(μM) 1
[30] = LYN B FRET-Z-Lyte SP, Test Conc(μM):ATP Conc(μM) 1:25
[31] = PRKCB2 (PKC Beta II) Z-Lyte SP, Test Conc(μM):ATP Conc(μM) 1:200
[32] = Test Conc(μM):ATP Conc(μM) 0.25

kinases (Homo sapiens, UniProt P45984), sequence (P45984 whole entry): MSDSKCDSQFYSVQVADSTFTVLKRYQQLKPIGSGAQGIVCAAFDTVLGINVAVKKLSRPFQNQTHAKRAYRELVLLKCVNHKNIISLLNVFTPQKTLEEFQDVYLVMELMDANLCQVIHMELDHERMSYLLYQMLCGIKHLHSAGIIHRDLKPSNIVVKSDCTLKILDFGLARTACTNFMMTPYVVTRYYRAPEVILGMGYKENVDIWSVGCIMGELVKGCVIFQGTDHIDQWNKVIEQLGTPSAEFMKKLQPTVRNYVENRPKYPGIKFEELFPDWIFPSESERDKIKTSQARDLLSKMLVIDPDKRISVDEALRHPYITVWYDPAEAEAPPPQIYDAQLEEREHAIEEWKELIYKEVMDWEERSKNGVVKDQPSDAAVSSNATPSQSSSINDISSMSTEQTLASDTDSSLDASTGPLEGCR
kinases (Homo sapiens, UniProt Q5TCX8), sequence (Q5TCX8 whole entry): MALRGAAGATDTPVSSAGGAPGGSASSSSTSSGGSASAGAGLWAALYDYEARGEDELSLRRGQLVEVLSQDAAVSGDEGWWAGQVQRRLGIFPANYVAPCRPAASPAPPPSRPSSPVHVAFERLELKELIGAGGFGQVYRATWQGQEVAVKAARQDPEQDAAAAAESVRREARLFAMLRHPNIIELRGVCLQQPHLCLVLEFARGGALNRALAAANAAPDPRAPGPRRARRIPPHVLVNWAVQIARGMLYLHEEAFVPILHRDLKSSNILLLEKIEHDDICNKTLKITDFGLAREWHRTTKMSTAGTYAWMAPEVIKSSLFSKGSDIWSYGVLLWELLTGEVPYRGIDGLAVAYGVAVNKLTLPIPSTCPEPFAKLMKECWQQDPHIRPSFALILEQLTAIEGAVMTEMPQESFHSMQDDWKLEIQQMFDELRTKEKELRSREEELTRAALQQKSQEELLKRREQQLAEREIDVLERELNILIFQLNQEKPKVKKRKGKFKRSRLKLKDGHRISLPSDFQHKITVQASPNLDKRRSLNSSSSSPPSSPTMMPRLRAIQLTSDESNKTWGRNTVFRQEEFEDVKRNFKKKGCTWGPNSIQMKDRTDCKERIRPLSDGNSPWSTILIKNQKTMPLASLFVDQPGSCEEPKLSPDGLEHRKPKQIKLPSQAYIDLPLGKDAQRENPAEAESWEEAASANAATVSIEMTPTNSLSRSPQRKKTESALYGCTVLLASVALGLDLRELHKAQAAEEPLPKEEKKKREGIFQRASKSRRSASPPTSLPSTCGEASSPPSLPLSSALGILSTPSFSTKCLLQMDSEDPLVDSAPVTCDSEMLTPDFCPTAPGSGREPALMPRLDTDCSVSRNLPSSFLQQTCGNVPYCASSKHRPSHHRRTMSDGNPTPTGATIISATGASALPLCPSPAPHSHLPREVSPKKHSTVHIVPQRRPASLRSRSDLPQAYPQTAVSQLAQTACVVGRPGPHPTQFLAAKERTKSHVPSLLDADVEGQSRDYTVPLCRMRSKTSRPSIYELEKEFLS
kinases (Homo sapiens, UniProt Q15569), sequence (Q15569 whole entry): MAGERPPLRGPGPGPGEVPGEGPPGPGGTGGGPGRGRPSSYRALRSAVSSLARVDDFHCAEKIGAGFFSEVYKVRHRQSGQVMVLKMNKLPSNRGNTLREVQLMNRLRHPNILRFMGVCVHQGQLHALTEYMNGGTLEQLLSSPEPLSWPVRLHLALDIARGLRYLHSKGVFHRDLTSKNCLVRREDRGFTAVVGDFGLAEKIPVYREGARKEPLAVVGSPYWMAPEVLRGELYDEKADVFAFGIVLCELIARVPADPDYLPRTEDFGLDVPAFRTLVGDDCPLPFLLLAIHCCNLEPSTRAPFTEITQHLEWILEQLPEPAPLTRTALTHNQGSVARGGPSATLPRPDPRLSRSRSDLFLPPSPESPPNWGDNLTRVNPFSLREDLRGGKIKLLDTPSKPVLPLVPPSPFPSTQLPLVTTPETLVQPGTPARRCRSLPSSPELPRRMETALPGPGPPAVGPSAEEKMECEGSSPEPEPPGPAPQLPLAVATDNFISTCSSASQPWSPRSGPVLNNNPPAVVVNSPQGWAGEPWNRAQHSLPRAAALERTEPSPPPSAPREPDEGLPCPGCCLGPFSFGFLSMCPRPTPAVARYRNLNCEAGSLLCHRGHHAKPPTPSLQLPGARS
kinases (Homo sapiens, UniProt O96017), sequence (O96017 whole entry): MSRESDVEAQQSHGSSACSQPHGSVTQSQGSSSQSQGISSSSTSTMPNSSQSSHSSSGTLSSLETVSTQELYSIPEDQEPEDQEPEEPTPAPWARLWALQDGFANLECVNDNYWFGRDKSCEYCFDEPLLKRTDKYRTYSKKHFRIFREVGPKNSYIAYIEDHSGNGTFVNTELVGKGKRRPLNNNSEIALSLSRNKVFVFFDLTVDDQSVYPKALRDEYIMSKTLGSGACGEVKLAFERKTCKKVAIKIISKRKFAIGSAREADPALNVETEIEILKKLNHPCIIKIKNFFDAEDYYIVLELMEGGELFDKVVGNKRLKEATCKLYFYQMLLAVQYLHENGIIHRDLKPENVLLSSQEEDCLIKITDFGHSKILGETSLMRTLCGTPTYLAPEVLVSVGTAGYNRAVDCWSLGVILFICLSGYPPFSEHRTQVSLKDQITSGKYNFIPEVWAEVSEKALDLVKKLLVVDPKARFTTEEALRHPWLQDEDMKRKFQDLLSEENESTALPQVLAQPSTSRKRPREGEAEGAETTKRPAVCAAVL
kinases (Homo sapiens, UniProt Q9HAZ1), sequence (Q9HAZ1 whole entry): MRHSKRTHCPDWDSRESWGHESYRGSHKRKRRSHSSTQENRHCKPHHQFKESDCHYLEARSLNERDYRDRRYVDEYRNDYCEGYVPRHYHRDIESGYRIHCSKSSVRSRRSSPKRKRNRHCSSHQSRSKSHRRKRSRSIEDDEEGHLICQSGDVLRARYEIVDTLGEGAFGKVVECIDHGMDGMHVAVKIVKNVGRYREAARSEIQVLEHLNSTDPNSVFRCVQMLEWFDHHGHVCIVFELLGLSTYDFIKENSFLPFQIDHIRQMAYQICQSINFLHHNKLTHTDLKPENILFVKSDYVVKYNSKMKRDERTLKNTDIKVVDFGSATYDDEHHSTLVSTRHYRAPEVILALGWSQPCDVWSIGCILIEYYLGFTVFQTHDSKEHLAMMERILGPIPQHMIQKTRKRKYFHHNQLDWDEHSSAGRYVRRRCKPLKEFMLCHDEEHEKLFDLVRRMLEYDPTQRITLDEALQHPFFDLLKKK
kinases (Homo sapiens, UniProt P68400), sequence (P68400 whole entry): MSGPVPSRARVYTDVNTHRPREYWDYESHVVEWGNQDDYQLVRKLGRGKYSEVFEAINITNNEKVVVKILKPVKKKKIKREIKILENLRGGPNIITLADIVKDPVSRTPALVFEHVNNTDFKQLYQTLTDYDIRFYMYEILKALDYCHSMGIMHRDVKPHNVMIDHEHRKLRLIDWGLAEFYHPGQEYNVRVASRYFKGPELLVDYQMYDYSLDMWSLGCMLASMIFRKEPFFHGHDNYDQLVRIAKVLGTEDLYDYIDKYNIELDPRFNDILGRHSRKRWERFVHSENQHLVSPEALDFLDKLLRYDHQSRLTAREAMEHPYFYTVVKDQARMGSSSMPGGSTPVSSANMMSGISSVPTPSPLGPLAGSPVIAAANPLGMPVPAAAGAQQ
kinases (Homo sapiens, UniProt P54764), sequence (P54764 20-986): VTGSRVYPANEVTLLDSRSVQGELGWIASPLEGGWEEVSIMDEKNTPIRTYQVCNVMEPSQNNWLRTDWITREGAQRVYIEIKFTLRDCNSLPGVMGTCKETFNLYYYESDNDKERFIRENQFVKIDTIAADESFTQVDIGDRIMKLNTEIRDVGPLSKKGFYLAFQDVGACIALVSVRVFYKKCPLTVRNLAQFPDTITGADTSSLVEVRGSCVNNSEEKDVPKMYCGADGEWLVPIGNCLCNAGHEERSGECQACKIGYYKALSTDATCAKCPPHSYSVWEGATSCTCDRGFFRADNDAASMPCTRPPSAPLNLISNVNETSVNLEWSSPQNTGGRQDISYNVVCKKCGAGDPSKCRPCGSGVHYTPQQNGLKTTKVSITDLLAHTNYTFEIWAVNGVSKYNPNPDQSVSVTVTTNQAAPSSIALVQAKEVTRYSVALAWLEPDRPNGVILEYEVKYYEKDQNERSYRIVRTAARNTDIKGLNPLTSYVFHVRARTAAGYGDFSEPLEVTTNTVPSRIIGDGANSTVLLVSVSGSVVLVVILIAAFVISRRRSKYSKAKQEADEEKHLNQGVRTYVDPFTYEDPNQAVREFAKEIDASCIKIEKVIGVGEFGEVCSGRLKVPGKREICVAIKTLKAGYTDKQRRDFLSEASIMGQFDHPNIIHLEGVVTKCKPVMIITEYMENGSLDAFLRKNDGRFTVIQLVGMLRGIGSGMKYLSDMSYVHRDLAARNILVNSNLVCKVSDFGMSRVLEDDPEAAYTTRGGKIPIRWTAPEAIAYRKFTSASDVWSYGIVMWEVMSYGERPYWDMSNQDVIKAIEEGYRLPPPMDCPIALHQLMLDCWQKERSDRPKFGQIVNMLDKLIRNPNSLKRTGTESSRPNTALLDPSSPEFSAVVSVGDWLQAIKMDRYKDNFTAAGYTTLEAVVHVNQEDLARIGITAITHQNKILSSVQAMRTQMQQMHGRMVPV
kinases (Homo sapiens, UniProt Q86Y07), sequence (Q86Y07 whole entry): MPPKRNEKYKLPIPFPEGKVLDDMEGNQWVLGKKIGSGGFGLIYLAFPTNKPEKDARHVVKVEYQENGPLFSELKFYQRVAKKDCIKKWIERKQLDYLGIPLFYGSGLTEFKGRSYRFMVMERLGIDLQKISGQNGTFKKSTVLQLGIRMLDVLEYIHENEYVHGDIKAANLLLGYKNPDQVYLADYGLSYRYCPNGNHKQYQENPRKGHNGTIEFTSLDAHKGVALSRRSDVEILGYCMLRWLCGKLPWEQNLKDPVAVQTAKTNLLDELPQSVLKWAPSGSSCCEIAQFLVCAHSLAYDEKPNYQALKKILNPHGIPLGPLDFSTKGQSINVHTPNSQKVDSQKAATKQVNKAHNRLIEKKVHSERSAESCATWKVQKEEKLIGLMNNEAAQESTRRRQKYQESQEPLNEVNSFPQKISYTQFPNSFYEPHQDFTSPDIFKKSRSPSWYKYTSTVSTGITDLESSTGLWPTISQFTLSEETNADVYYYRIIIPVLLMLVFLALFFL

Row | Structure (SMILES) | Mean Inhib (%) (kinases [1]) | Mean Inhib (%) (kinases [2]) | Mean Inhib (%) (kinases [3]) | Mean Inhib (%) (kinases [5]) | Mean Inhib (%) (kinases [6]) | Mean Inhib (%) (kinases [7]) | Mean Inhib (%) (kinases [8]; [28]) | Mean Inhib (%) (kinases [8]; [29]) | Mean Inhib (%) (kinases [9]) | Mean Inhib (%) (kinases [10]) | Mean Inhib (%) (kinases [11]) | Mean Inhib (%) (kinases [12]) | Mean Inhib (%) (kinases [13]) | Mean Inhib (%) (kinases [14]) | Mean Inhib (%) (kinases [15]) | Mean Inhib (%) (kinases [16]) | Mean Inhib (%) (kinases [17]) | Mean Inhib (%) (kinases [18]) | Mean Inhib (%) (kinases [21]) | Mean Inhib (%) (kinases [22]) | other results
1 | Cc1ccc(NC(=O)c2ccnc(N3CCOCC3)c2)cc1Nc1ccnc(N2CC(C)OC(C)C2)n1 (stereo not drawn) [compound 3] | 10.2 | 2.8 | 1.5 | 15.8 | 8.6 | 3.2 | 17.9 | 5.3 | 0.0 | 6.9 | 6.1 | 15.6 | −2.5 | −1.5 | −5.7 | 1.2 | 0.2 | 5.3 | 6.4 | 15.9 | Mean Inhib (%) (kinases [4]; [27]): 0.0%; Mean Inhib (%) (kinases [19]; [27]): 7.4%; Mean Inhib (%) (kinases [20]; WNK1 FRET-Lantha SP): 2.7%; Mean Inhib (%) (kinases [23]): −9.4%; Mean Inhib (%) (kinases [24]): 0.3%; Mean Inhib (%) (kinases [25]): −7.6%; kinase specificity (kinase inhibition profile) (kinases [26]): strong specificity in targeting p38α; also recorded: very specific for p38α/β; Mean Inhib (%) (kinases [26]; [30]): 16.3%; Mean Inhib (%) (kinases [26]; [31]): −11.1%
2 | Cc1cc(Oc2ccnc(Nc3ccc(S(N)(=O)=O)cc3)c2)c(-c2ccccn2)nc1C [compound 65] | 0.4 | 85.2 | −1.9 | 6.0 | 64.7 | 3.8 | 12.1 | 5.2 | −3.2 | 47.0 | 2.4 | 5.9 | 15.5 | 1.9 | −16.6 | −0.9 | 6.1 | −2.5 | 0.4 | 16.2 | Mean Inhib (%) (kinases [4]; [32]): 8.8%; Mean Inhib (%) (kinases [19]; [32]): −7.8%; WNK1 FRET-Lantha SP Mean Mean Inhib (%) (kinases [20]; WNK1): 5.3%; Mean Inhib (%) (kinases [23]): −1.2%; Mean Inhib (%) (kinases [24]): 6.0%; Mean Inhib (%) (kinases [25]): 4.9%; Mean Inhib (%) (kinases [26]; [30]): 42.0%; Mean Inhib (%) (kinases [26]; [31]): −1.0%
